Values of other authors, collected in US20050107349A1, “Method for the treatment or prevention of respiratory disorders with a cyclooxygenase-2 inhibitor in combination with a muscarinic receptor antagonist and compositions therewith” (Pharmacia Corporation, priority 2003, published 2005).

Tests used:
[1] = test system: subjects suffering from asthma

C[N+]1(C)[C@@H]2C[C@@H](OC(=O)C(O)(c3cccs3)c3cccs3)C[C@H]1[C@@H]1O[C@@H]12 [tiotropium, (1α, 2β, 4β, 5α, 7β)-7-[(hydroxy-2-thienylacetyl)oxy]-9,9-dimethyl-3-oxa-9-azoniatricyclo [3.3.1.0^2,4]nonane bromide monohydrate]
bronchodilation [1]: prolonged bronchodilation | dose-dependent and prolonged bronchodilator effect (duration) (patients with COPD): ≤ 48 h
